Source: patent publication US7423048B2, “Compounds for treating fundic disaccomodation” (Janssen Pharmaceutica, N.V., priority 2000, dated 2008)
Marks after values point to notes of the source that are not given here.

System: fundus of the stomach (gastric tone) in conscious dogs
Assay: Gastric tone measured by an electronic barostat in conscious dogs
Type: in vivo, beagle dogs
Settings: 1 hour observation period, constant pressure 6 mmHg
Source text: C. Pharmacological Examples C.1 Gastric Tone Measured by an Electronic Barostat in Conscious Dogs
Gastric tone cannot be measured by manometric methods. Therefore an electronic barostat was used. This allows the study of the physiological pattern and regulation of gastric tone in conscious dogs and the influence of test-compounds on this tone.
The barostat consists of an air injection system which is connected by a double-lumen 14-French polyvinyl tube to an ultrathin flaccid polyethylene bag (maximal volume: ±700 ml). Variations in gastric tone were measured by recording changes in the volume of air within an intragastric bag, maintained at a constant pressure. The barostat maintains a constant pressure (preselected) within a flaccid air-filled bag introduced into the stomach, changing the volume of air within the bag by an electronic feedback system.
Thus the barostat measures gastric motor activity (contraction or relaxation) as changes in intragastric volume (decrease or increase resp.) at a constant intragastric pressure. The barostat consists of a strain gauge linked by an electronic relay to an air injection-aspiration system. Both the strain gauge and the injection system are connected by means of double-lumen polyvinyl tube to an ultrathin polyethylene bag. A dial in the barostat allows selection of the pressure level to be maintained within the intragastric bag.
Female beagle dogs, weighing 7-17 kg, were trained to stand quietly in Pavlov frames. They were implanted with a gastric cannula under general anaesthesia and aseptic precautions. After a median laparotomy, an incision was made through the gastric wall in longitudinal direction between the greater and the lesser curve, 2 cm above the nerves of Latarjet. The cannula was secured to the gastric wall by means of a double purse string suture and brought out via a stub wound at the left quadrant of the hypochondrium. Dogs were allowed a recovery period of two weeks.
At the beginning of the experiment, the cannula was opened in order to remove any gastric juice or food remnants. If necessary, the stomach was cleansed with 40 to 50 ml lukewarm water. The ultrathin bag of the barostat was positioned into the fundus of the stomach through the gastric cannula. In order to ensure easy unfolding of the intragastric bag during the experiment, a volume of 300-400 ml was injected twice into the bag.
When during a stabilisation period of maximum 90 minutes, the gastric volume is stable during 15 minutes at a constant pressure of 6 mmHg (about 0.81 kPa), the test compound was administered subcutaneously (S.C.), or intraduodenally (I.D.). Test compounds were screened, i.e. changes in gastric volume were measured, usually at 0.63 mg/kg. […] Table C-1 summarizes the mean maximal change in volume on relaxation of the fundus, during the 1 hour observation period after S.C. or I.D. administration of the test compound (0.63 mg/kg).

[1] = S.C. administration, 0.63 mg/kg

SMILES	Maximum change in volume (mean maximal change in volume on relaxation of the fundus) [1] [mL]	other results
O=C(O)C(=O)O.O=C1NCCCN1CCCNCC1CCc2cccnc2O1 (racemic) [Compound 9, (±)-1-[3-[[(3,4-dihydro-2H-pyrano[2,3-b]pyridin-2-yl)methyl]amino]propyl]tetrahydro-2(1H)-pyrimidinone ethanedioate (1:1)]	78	
CC1(C)CNC(=O)N(CCCNCC2Oc3cccnc3O2)C1 (racemic) [Compound 10, (±)-1-[3-[(1,3-dioxolo[4,5-b]pyridin-2-ylmethyl)amino]-propyl]tetrahydro-5,5-dimethyl-2(1H)-pyrimidinone]	31	
O=C1CN(CC(O)CNCC2COc3cccnc3O2)C(=O)N1 (centres unmarked) [Compound 13, 1-[3-[[(2,3-dihydro-1,4-dioxino[2,3-b]pyridin-3-yl)methyl]amino]-2-hydroxypropyl]-2,4-imidiazolidinedione]		Maximum change in volume (mean maximal change in volume on relaxation of the fundus) (I.D. administration, 0.63 mg/kg): 118 mL
O=C1CCN(CCCNC[C@H]2COc3cccnc3O2)C(=O)N1 [Compound 25, (S)-1-[3-[[(2,3-dihydro[1,4]dioxino[2,3-b]pyridin-3-yl)methyl]amino]-propyl]dihydro-2,4(1H,3H)-pyrimidinedione]		Maximum change in volume (mean maximal change in volume on relaxation of the fundus) (I.D. administration, 0.04 mg/kg (footnote *)): 226* ml
O=C1NCCCN1CCCNCC1COc2cccnc2O1 (racemic) [Compound 1, (±)-1-[3-[[(2,3-dihydro-1,4-dioxino[2,3-b]pyridin-3-yl)methyl]amino]propyl]tetrahydro-2(1H)pyrimidinone]	156	
